Laboratory results: a melting point compilation (Tetko et al.; mined from patent text by program, amines drawn as free bases though some values may be those of a salt)

Row | Compound | melting point [°C]
1 | O=C(O)CC(Cc1c[nH]c2ccccc12)(C(=O)O)C(=O)O | 184 to 185
2 | CCCCOC(=O)Nc1nc(C(=NOC2CCCC2)C(=O)OC)ns1 | 115 to 118
3 | NS(=O)(=O)c1ccccc1C(=O)OCCO | 84 to 86.5
4 | COC(=O)C1CN(C(=O)[C@H](CO)NC(=O)OCc2ccccc2)C1 | 90 to 95
5 | Cc1cc2c(c(C)c1S(=O)(=O)C[N+](=O)[O-])CCCS2(=O)=O | 168 to 170
6 | COc1ccc(CN(CCCC(N)=O)Cc2ccc(OC)cc2)cc1 | 53 to 54
7 | CC(C)(C)OC(=O)N[C@H](CC(=O)OCc1ccccc1)C(=O)N[C@H](CO)c1ccccc1 | 117 to 118
8 | O=C1N(CO)OCCN1c1ccc(Cl)c(Cl)c1 | 134
9 | Oc1ccc(CCNc2ncnc3c(F)ccc(F)c23)cc1 | 221 to 222
10 | CCCC(=O)c1cc2c(=O)cc(C(=O)OC)[nH]c2c(C)c1C | 157 to 159
11 | Cn1ccnc1Sc1ccc(Nc2c(C#N)cnc3cc(-c4ccc(N5CCSCC5)nc4)ccc23)cc1Cl | > 260
12 | CN(C)CCSc1cc(NC(=O)OC(C)(C)C)c(N)cc1C#Cc1ccccc1 | 115 to 117
13 | CC(C)(C)C(=O)c1ccc(CSCc2ccc(C(=O)C(C)(C)C)cc2)cc1 | 64 to 65
14 | COc1ccc(C(=O)Nc2ccc3ccc(C=CN(C)C)nc3n2)cc1 | 240
15 | N#CC(C(=O)c1ccc(Cl)cc1)=C1CCCN1C(=O)c1ccc(Cl)cc1 | 218
16 | CCCNC(=O)C1(CCCCc2ccc(NC(=O)c3ccccc3)cc2)c2ccccc2-c2ccccc21 | 171 to 173
17 | CN(Cc1ccncc1)Cc1ccc(CCC(=O)Nc2ccc(-c3ccc(Cl)cc3)cc2)cc1 | 102
18 | Oc1ccc2ccccc2c1C1NCCc2ccccc21 (stereo unspecified) | 148 to 150
19 | CCOC(=O)C(CC(=O)O)(Cc1cn(C)c2ccccc12)C(=O)OCC | 127 to 130
20 | OC1CCCCC1N1CCC(Cc2ccc(Cl)cc2)CC1 (stereo unspecified) | 69.1 to 70.4
21 | Cc1cn(C(C(=O)N(C)C)c2ccccc2)nc1-c1ccccc1 (stereo unspecified) | 136 to 138
22 | CCCCc1ccc(NC(=O)c2ccc([N+](=O)[O-])cc2)cc1 | 151 to 152
23 | CCOC(=O)c1csc(C2OC(COC(=O)c3ccccc3)C(O)C2O)n1 (stereo unspecified) | 82 to 85
24 | CCCCCc1oc(-c2ccc(Cl)cc2)nc1CC(=O)O | 136 to 137
25 | CCN1CCN(CC)c2cc(N)ccc2C1=O | 140 to 141
26 | O=C1CCc2ccc(OCCCl)cc21 | 76 to 80

Row | Compound | melting point [°C]
27 | O=C1c2ccccc2C(=O)N1OC/C=C/Cc1ccccc1 | 70 to 71
28 | CCC#COc1ccc(S(=O)(=O)NC(CSc2ccccn2)C(=O)NO)cc1 (stereo unspecified) | 115 to 120
29 | Cc1c(C(=O)Nc2ccc(N3CCN(CCO)CC3)c(C#N)c2)cnn1-c1ccc(F)cc1F | 149 to 151
30 | CC(=O)c1cn(C)cc(-c2cccc(C(F)(F)F)c2)c1=O | 130 to 131
31 | CCC1(CC)NC(=O)C(CC)(CC)N1OC(C)(C)C#N | 125 to 130
32 | COc1cc(OC)nc(C2OC(=O)c3c(-c4ccccc4)ccnc32)n1 (stereo unspecified) | 151 to 154
33 | CCC(=O)c1ccc(OC(C)c2ccc(Cl)cc2)cc1 (stereo unspecified) | 70 to 71
34 | CN1C(=O)N(c2ccc([N+](=O)[O-])c(C(F)(F)F)c2)C(=O)C1(C)C | 116
35 | COC(=O)c1nc(N2CCCC2)ccc1O | 82.5 to 84
36 | C=CCC1(Cc2nc[nH]c2C)CCc2c(C)c3ccccc3n2C1=O (stereo unspecified) | 209 to 210
37 | CC(C)(C)CC(=O)c1c(CC(C)(C)C(=O)O)n(Cc2ccc(Cl)cc2)c2ccc(OCc3ccc4ccccc4n3)cc12 | 183 to 184
38 | O=C(O)CCCCc1ccc(NS(=O)(=O)c2ccccc2)cn1 | 136 to 138
39 | N=C(N)c1ccc(-c2ccc(N3CCN(CCC(=O)O)C3=O)cc2)cc1 | > 200
40 | Clc1cc(Cc2c(Cl)cccc2Cl)nc(Cl)n1 | 106 to 107
41 | COc1c(C)cc(C)cc1CCC(=O)O | 74 to 75
42 | COc1ccc([C@H](O)[C@@H](Cc2ccc(C(F)(F)F)cc2)C(=O)O)cc1 (racemic) | 113 to 114
43 | O=c1sc(=Nc2ccc(Cl)cc2)n2n1CCCC2 | 82 to 85
44 | COc1ccc(S(=O)(=O)NCC(C(=O)NO)C2(CC(C)C)CCN(CCc3ccccc3)C2=O)cc1 (stereo unspecified) | 195 to 196
45 | Cn1nnnc1NCC(O)CCOc1cccc(CN2CCCCC2)c1 (stereo unspecified) | 138 to 139
46 | CC(C)(CC(=O)O)C(=O)C(=O)O | 134 to 135
47 | COc1ccc(/C=C/C(=O)/C=C/c2ccc(OC)c(O)c2)cc1O | 195 to 197
48 | CCc1c(-c2ccc(OCc3ccccc3)cc2)c2ccc3c(OC)ccc1n32 | 78 to 81
49 | CC(=O)c1ccc2c(c1)ncn2-c1cccc(C(=O)OC2CCN(C)CC2)c1 | 106 to 107
50 | CC(C)(C)OC(=O)N1CC[C@H](O)[C@H]1C(=O)O | 156 to 157
51 | COc1cccc2sc(-c3ccc([N+](=O)[O-])cc3Cl)nc12 | 187 to 188
52 | COC(=O)C(C)(C)OCc1cc2cc(C(F)(F)F)ccc2n1S(=O)(=O)c1cc(OC)ccc1OC | 130 to 132

Row | Compound | melting point [°C]
53 | CC(C)C(=O)N(Cc1ccccc1)c1nnn(Cc2ccccc2)n1 | 68
54 | CCCC1C(=O)N(S(C)(=O)=O)C2CCN(S(C)(=O)=O)C12 (stereo unspecified) | 205 to 208
55 | Cc1oc(-c2ccco2)nc1COc1cc(CCl)ccn1 | 107 to 108
56 | Cc1cc2c(cc1[N+](=O)[O-])C(C)(C)CCC2(C)C | 143 to 144
57 | COC(=O)c1cccc2c(=O)c3c(I)cccc3[nH]c12 | 239 to 241
58 | COc1cc2c(cc1OC)CC(=O)N(CCCCl)C=C2 | 84 to 85
59 | CCCCn1c(=O)c(NC(=O)Nc2c(C(C)C)cccc2C(C)C)c(-c2cccc(OCCO)c2)c2cccnc21 | 106 to 110
60 | CCCc1c[nH]c(-c2ccnc(NC(=O)c3ccccc3)c2)n1 | 95 to 97
61 | COC(=O)c1[nH]c(SCc2ccccn2)nc1CCNC(=O)[C@H](Cc1ccccc1)NC(=O)N(Cc1ccccc1)NC(=O)C(C)(C)C | 171 to 172
62 | CCOC(=O)CC(CC(=O)Nc1ccc(Cl)c(C=C(Cl)C(=O)OCC)c1)C(F)(F)F (stereo unspecified) | 115 to 117
63 | COc1ccc(C(=O)NNC(=O)c2ccccc2)cc1 | 201 to 202
64 | Cn1cc(Cl)c(=O)c(-c2cccc(C(F)(F)F)c2)c1 | 170 to 172
65 | CC(=O)NCc1ccc(CN2CCN(c3ccc([N+](=O)[O-])cc3)CC2)cc1 | 152 to 154
66 | Cc1ccc(-c2noc3c(Cl)c(OCC(=O)O)ccc23)o1 | 217 to 219
67 | CC(C)(C)c1nn(-c2c(Cl)cc(C(F)(F)F)cc2Cl)c(N)c1Cl | 137
68 | Cn1cc(C(=O)CN2CCN(c3ncccn3)CC2)cc1C(=O)c1ccc([N+](=O)[O-])cc1 | 164 to 166
69 | Cc1c(Cc2cccc(C(F)(F)F)c2)oc2cccc(O)c12 | 91 to 92
70 | CC(N)C(=O)N(CCC(=O)O)C1Cc2ccccc2C1 (stereo unspecified) | 205 to 206
71 | COC(=O)c1ccc(OC)nc1S(=O)(=O)NC(=O)Nc1nc(OC)cc(OC)n1 | 194 to 196
72 | NS(=O)(=O)c1ccc(Nc2nc(OCC3CC=CCC3)c3nc[nH]c3n2)cc1 (stereo unspecified) | 165
73 | CN1CCN(CC2COc3cc4ncnc(Nc5cccc(Br)c5)c4cc3O2)CC1 (stereo unspecified) | 182 to 189
74 | O=C(c1cccnc1)c1cc2cc(Br)ccc2s1 | 147 to 148
75 | O=C(COc1ccc(CN2CCOCC2)cc1)N1CCN(c2ccc(N3C[C@H](CNC(=S)C4CC4)OC3=O)cc2F)CC1 | 138 to 141
76 | CC(C)OC(=O)N1CC(=S)Nc2ccc(-c3cccc(Cl)c3)cc21 | 208 to 212
77 | COc1ccc(Cc2oc3ccc(OC)cc3c2CC#N)cc1 | 83
78 | O=c1nc(-c2nccs2)sc2ccccc12 | 229 to 230

Row | Compound | melting point [°C]
79 | Cc1cccc(-c2n[nH]cc2-c2ccc(F)c(-c3ccc(NC(=O)NN4CCOCC4)cc3)c2)n1 | 131 to 133
80 | CCC(CC)Nc1cc(C)nc(Oc2c(C)cc(Cl)cc2C)c1[N+](=O)[O-] | 152 to 154
81 | O=c1c(-c2ccccc2)c(Cn2cnc3c(Cl)ncnc32)oc2ccccc12 | 187 to 190
82 | N#Cc1ccc2[nH]cc(CCNC(=O)OCc3ccccc3)c2c1 | 128 to 129
83 | CCCCc1nc2ccccn2c1Cc1ccc(-c2ccccc2C(=O)O)cc1 | 196
84 | Cc1c(Cl)[nH]c(=O)n(Cc2ccccc2)c1=O | 202 to 205
85 | Cc1ccc(S(=O)(=O)c2cc3cnc(C)nc3nc2O)cc1 | > 200
86 | COC(=O)Nc1nc2cc(C(C3CC3)n3ccnc3)ccc2[nH]1 (stereo unspecified) | 218
87 | CSc1ccc(C(C)C)c(NC(=O)CN2CCN(CCSc3nc4ccccc4o3)CC2)c1C(C)C | 148 to 150
88 | COc1ccc2c(c1)CCN(Cc1c[nH]c3ncccc13)C2 | 144 to 146
89 | COC(=O)CCCON1C(=O)c2ccccc2C1=O | 79 to 81
90 | O=c1[nH]c2ccc(CCCN3CCC(Cc4ccc(F)cc4)CC3)cc2o1 | 105 to 107
91 | CCOC(=O)c1c2ccc(CC(=O)N(OC)C3COC(C)(C)O3)ccc-2c(C(=O)OCC)c1N (stereo unspecified) | 135 to 137
92 | CCC(CC)(CC(=O)Nc1ccc2ccc(OCc3ccc4cccc(F)c4n3)cc2c1)C(=O)O | 141 to 142
93 | O=C(c1ccccc1)c1cc(Cl)ccc1-n1c(Br)nnc1CN1C(=O)c2ccccc2C1=O | 202 to 204
94 | CNc1nc2ccccc2c2[nH]c3ccccc3c12 | 146 to 147
95 | N#Cc1ccc(-c2ccc(OCCCCBr)cc2)cc1 | 62.5 to 64
96 | CCNC(=C[N+](=O)[O-])SC | 66 to 67.5
97 | CCCCCCCCCOc1ccc(-c2ccc(Br)cc2)c(F)c1F | 46 to 47.5
98 | CN1CCC/C1=C\c1nc(-c2ccc(F)cc2)c(-c2ccncc2)n1CCCc1ccccc1 | 171 to 172
99 | NC(=O)c1c(F)cc(-c2ccc3nnn(Cc4ccc5ncccc5c4)c3n2)cc1F | 272 to 275
100 | COc1ccc(-c2cn[nH]c2N)cc1 | 198 to 201
101 | BrCCCN(c1ccccc1)c1ccccc1 | 162 to 164
